Key:
KCC2 = test: Western blot of KCC2 in total cell lysate of HEK KCC2 cells; format: cell-based; conditions: 10 μM, 30 min of cell treatment, HEK KCC2 whole cell lysate
Protocol: Wild-type or KCC2-expressing Human Embryonic Kidney (HEK) 293 cells (provided by Prof. Eric Delpire Department of Anesthesiology, Vanderbilt University Medical Center, Nashville, Tenn.) were grown up to 80-90% confluence in DMEM/Ham's F-12 (1:1) (Life technologies, Carlsbad, Calif., USA) supplemented with 10% FBS (Life technologies), 50 units/mL penicillin, and 50 µg/mL streptomycin (Life technologies). KCC2-expressing clones were under puromycin selection (20 μg/ml, Life technologies).
Wild-type and KCC2-expressing HEK293 cells or NSC-34 were harvested and homogenised in lysis buffer (PBS containing 1% Igepal CA-630, 0.1% SDS, 10 mM sodium pyrophosphate, 10 mM NaF, 10 mM NaVO4, 10 mM iodoacetamide and cocktail protease inhibitors and centrifugated at 18000 g for 30 minutes at 4° C. Protein concentration in supernatants was determined using DC protein assay (Bio-rad). Same amounts of total proteins were separated in 6% or 7% SDS PAGE and transferred onto PVDF membrane. Once blocked in Tris Buffer Saline 0.05% Tween 5% non-fat dry milk, membranes were probes over night at 4° C. with KCC2 antibody (1/1000 dilution, Merck-Millipore, Billerica, Mass., USA), or anti-phospho-serine940 KCC2 (1/1000 dilution, PhosphoSolutions) or anti-Actin antibody (1/500 dilution, Sigma Aldrich). […] Signal intensity was measured with the image analysis software Image lab (Bio-Rad, Hercules, Calif., USA). […]

[1] = tested on: reciprocal inhibition of lumbar MNs; test: In vitro extracellular recordings and evaluation of reciprocal inhibition after neonatal spinal cord transection; parameters: species or system rat
Description: Rats were deeply anesthetized by hypothermia at birth. A dorsal midline skin incision was made over the thoracic vertebra and the overlying fascia and muscles were retracted to expose the dorsal surface of the vertebrae. After a partial laminectomy, the spinal cord was completely transected at the T8 thoracic level with scissors. The lesion cavity was then filled with sterile absorbable local hemostat Surgicoll (Medical Biomaterial Products; Neustadt-Glewe, Germany). The skin incision was closed with sutures (PDSII 6.0, Ethicon; Johnson and Johnson; Brussels, Belgium) and covered by Steri-Strips (3M Health Care; St. Paul, Minn.). The whole surgical procedure took less tan 10 min after anesthesia. Sham-operated rats were treated in the same way except […] the spinal cord transection. Following surgery, the neonates recovered 45 min in a warm environment maintaining the temperature at 35±1° C. Wounds were then cleaned and rats were kept in a warm environment for 40 min before returning to the nest.
Spinal cords isolated from neonatal rats were prepared as described in section 1.2 until “recording”.
Extracellular electrophysiological signals of lumbar VRs and DRs responses were recorded by contact stainless steel electrodes insulated from the bath with vaseline. […]

[2] = tested on: Hoffmann reflex (H-reflex); test: Assessment of spasticity following spinal cord injury (H reflex); format: in vivo, rat; conditions: 10 μg/kg i.v.
Protocol: Thoracic spinal section in rats was used as a model of SCI. Adult female Wistar Rats (225/250 g Charles River) were anaesthetized intraperitoneally with 50 mg/kg ketamine (Imalgen®, Merial, Duluth, Ga., USA) and 0.25 mg/kg Medetomidine (Domitor®, Janssen Pharmaceutica, Beerse, Belgium). The antibiotic Amoxycyline (Duphamox LA®, Pfizer, 150 mg/kg) was injected subcutaneously before the surgery. The skin was cut longitudinally over T8-T10 vertebra and a local anesthetic (2% Procaine hydrochloride, Pharmy H, Saint-Germain-en-Laye, France) was injected intramuscularly before cuting the paravertebral muscles. A laminectomy was performed at vertebral segment T9. The spinal cord was transected with microscissors at the level of the T8 spinal segment. Finally, paravertebral muscles and skin were sutured and rats were treated with buprenorphine for analgesia (1 injection before awakening from anaesthesia and 4 more injections over the next 48 h period). […]
At day 29 post lesion, the H reflex in the rats under ketamine anesthesia (100 mg/kg, i.p.) were measured using a pair of stainless steel needle electrodes transcutaneously inserted into the vicinity of the tibial nerve stimulation. […]
The H reflex was measured three times at frequencies of 0.2 Hz 1 Hz, 2 Hz and 5 Hz to have their baseline values. […] The H reflex was measured each 20 minutes, five times at frequencies of 0.2 Hz 1 Hz, 2 Hz and 5 Hz

CN1CCN(CCCN2c3ccccc3Sc3ccc(Cl)cc32)CC1 [compound 2, 2-chloro-10-[3-(4-methyl-1-piperazinyl)propyl]-10H-phenothiazine]
phosphorylated KCC2 on serine 940 (KCC2): increased
total KCC2 protein level (monomers+oligomers) (KCC2): increased
strength of reciprocal inhibition relative to intact spinal cord ([1]; 200 μM (so in the source), n=6): inhibition comparable to an intact spinal cord
strength of reciprocal inhibition ([1]; 5, 10 and 20 μM, 20 min after onset of application, P5-7 rats transected at birth): increased the strength of reciprocal inhibition in a dose-dependent manner
decrease of the H reflex ([2]; 80 min after injection, 1, 2 and 5 Hz, adult rats after SCI): ~30%
effect on spasticity after spinal cord injury ([2]; 80 minutes, adult rats 4 weeks after SCI): reduces spasticity

— patent US9814727B2, “Piperazine phenothiazine derivatives for treating spasticity” (UNIVERSITE D'AIX-MARSEILLE, priority 2014, dated 2017)
